This is an account of results in PubChem BioAssay (NCI).

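48-hour exposure; five concentrations; linearly interpolated endpoints. TGI: total growth inhibition.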

Test systems include 786-0 renal; BT-549 breast; CCRF-CEM leukemia; COLO 205 colon; EKVX NSCLC; HCC-2998 colon; HOP-62 NSCLC; M14 melanoma; MDA-MB-231 breast; MOLT-4 leukemia; OVCAR-8 ovarian; RXF 393 renal; SF-295 CNS; SF-539 CNS; SNB-19 CNS; T-47D breast; UO-31 renal.
Assay in all cases: NCI-60 cell line screen, 48 h

Take `C/C(=C/c1ccccc1)CN(C(=O)/C=C\Sc1ccccc1)C(C)(C)C`: the TGI with 786-0 renal, in the assay with BT-549 breast, with CCRF-CEM leukemia, in the assay on COLO 205 colon, with EKVX NSCLC and with HCC-2998 colon was over 100 µM each time. For the same molecule, the TGI with HOP-62 NSCLC, in the assay on M14 melanoma, in the assay on MDA-MB-231 breast, with MOLT-4 leukemia, in the assay with OVCAR-8 ovarian and with RXF 393 renal was over 100 µM throughout. The TGI in the assay on SF-295 CNS, in the assay with SF-539 CNS, in the assay with SNB-19 CNS, in the assay with T-47D breast and with UO-31 renal was over 100 µM throughout.
With `CC(=O)OCc1ccc2oc(=O)c(C(=O)Oc3cccc(Cl)c3)cc2c1`, the TGI was over 100 µM in the assay on 786-0 renal; over 100 µM in the assay with BT-549 breast; over 100 µM with CCRF-CEM leukemia; 94.4 µM in the assay with COLO 205 colon; over 100 µM in the assay with EKVX NSCLC; 39.3 µM in the assay with HCC-2998 colon. The TGI in the assay on HOP-62 NSCLC is over 100 µM; with M14 melanoma, over 100 µM; in the assay on MDA-MB-231 breast, 98.8 µM; in the assay on MOLT-4 leukemia, over 100 µM; in the assay with OVCAR-8 ovarian, over 100 µM; in the assay on RXF 393 renal, over 100 µM. In addition, the TGI in the assay on SF-295 CNS was over 100 µM; in the assay on SF-539 CNS, over 100 µM; with SNB-19 CNS, over 100 µM; with T-47D breast it was 41 µM; in the assay on UO-31 renal, 55.4 µM.
`COc1ccc(N=Nc2c(C)c(C#N)c(=S)n(C3OC(COC(C)=O)C(OC(C)=O)C(OC(C)=O)C3OC(C)=O)c2C)cc1` (stereo not given): the TGI in the assay with 786-0 renal was 53 µM; in the assay with BT-549 breast it was over 100 µM; with CCRF-CEM leukemia, over 100 µM; in the assay with COLO 205 colon it was over 100 µM; in the assay on HCC-2998 colon, over 100 µM; in the assay on HOP-62 NSCLC it was over 100 µM. For the same molecule, the TGI with M14 melanoma is over 100 µM; in the assay with MDA-MB-231 breast, 71 µM; in the assay with MOLT-4 leukemia it was over 100 µM; in the assay with RXF 393 renal, over 100 µM; in the assay with SF-295 CNS, over 100 µM; with SF-539 CNS, over 100 µM. For the same molecule, the TGI in the assay on SNB-19 CNS, in the assay on T-47D breast and with UO-31 renal was over 100 µM throughout.
Turning to `C=CC(CBr)CCC(Br)C(C)(C)Br` (stereo not given), the TGI in the assay on 786-0 renal, with BT-549 breast, in the assay with CCRF-CEM leukemia, with COLO 205 colon, in the assay on EKVX NSCLC and in the assay with HCC-2998 colon was over 10 µM in each case. The TGI in the assay with HOP-62 NSCLC, in the assay on M14 melanoma, with MDA-MB-231 breast, in the assay with MOLT-4 leukemia, in the assay with OVCAR-8 ovarian and with RXF 393 renal was over 10 µM in each case. In addition, the TGI in the assay with SF-295 CNS, with SF-539 CNS, in the assay on SNB-19 CNS, in the assay on T-47D breast and in the assay with UO-31 renal was over 10 µM in each case.
Regarding `Cc1c(-c2ccccc2)[nH]c2ccc(Cl)cc2c1=O`, the TGI in the assay on 786-0 renal, with BT-549 breast, with CCRF-CEM leukemia, in the assay with COLO 205 colon, in the assay on EKVX NSCLC and in the assay on HCC-2998 colon was over 100 µM each time. Also, the TGI with HOP-62 NSCLC was 50.2 µM; in the assay on M14 melanoma it was over 100 µM; with MDA-MB-231 breast it was 96 µM; in the assay on MOLT-4 leukemia it was over 100 µM; in the assay with OVCAR-8 ovarian, 69.5 µM; with RXF 393 renal, 57.6 µM. The TGI is over 100 µM with SF-295 CNS; 42.9 µM in the assay on SF-539 CNS; over 100 µM in the assay with SNB-19 CNS; over 100 µM in the assay with T-47D breast; 0.507 µM with UO-31 renal.
Regarding `O=C(NO)c1ccc(OCc2cccc(Cl)c2)cc1`, the TGI is 19.1 µM in the assay on 786-0 renal; 48 µM with BT-549 breast; over 100 µM in the assay on CCRF-CEM leukemia; 51.7 µM in the assay with COLO 205 colon; 30.2 µM with EKVX NSCLC; 24.4 µM with HCC-2998 colon. Further, the TGI in the assay with HOP-62 NSCLC is over 47 µM; with M14 melanoma it was over 45.8 µM; with MDA-MB-231 breast it was 43.2 µM; in the assay on MOLT-4 leukemia it was over 45.9 µM; in the assay on OVCAR-8 ovarian, 33.3 µM; with RXF 393 renal it was 47.6 µM. Moreover, the TGI was 35.2 µM in the assay on SF-295 CNS; over 41.8 µM in the assay with SF-539 CNS; over 100 µM with SNB-19 CNS; over 61.5 µM in the assay on T-47D breast; 35.6 µM in the assay on UO-31 renal.
Regarding `Cc1ccc2c3c(cnc2n1)C(=O)OCCN3C`, the TGI with 786-0 renal, with BT-549 breast, in the assay with CCRF-CEM leukemia, in the assay with COLO 205 colon, with EKVX NSCLC and in the assay on HCC-2998 colon was over 100 µM each time. In addition, the TGI in the assay with HOP-62 NSCLC, in the assay with M14 melanoma, in the assay on MDA-MB-231 breast, with MOLT-4 leukemia, in the assay on OVCAR-8 ovarian and in the assay with RXF 393 renal was over 100 µM in each case. The TGI with SF-295 CNS, with SF-539 CNS, in the assay with SNB-19 CNS, in the assay on T-47D breast and in the assay with UO-31 renal was over 100 µM in each case.
With `COc1ccc2c(c1)CCN=C2Cc1ccccc1CCCl`, the TGI with 786-0 renal is over 100 µM; in the assay on BT-549 breast, over 100 µM; in the assay with CCRF-CEM leukemia it was over 100 µM; in the assay with COLO 205 colon it was 40 µM; in the assay with EKVX NSCLC it was over 100 µM; with HCC-2998 colon, 42.1 µM. Besides, the TGI in the assay with HOP-62 NSCLC is over 100 µM; in the assay on M14 melanoma, 46.1 µM; in the assay with MDA-MB-231 breast it was 44.1 µM; with MOLT-4 leukemia it was over 100 µM; with OVCAR-8 ovarian, 67.9 µM; in the assay on RXF 393 renal it was 71.7 µM. Moreover, the TGI is over 100 µM in the assay with SF-295 CNS; 45.8 µM in the assay on SF-539 CNS; over 100 µM with SNB-19 CNS; over 100 µM with T-47D breast; 43.9 µM in the assay with UO-31 renal.
For `CCOC(=O)/C(C=Nc1c(C)n(C)n(-c2ccccc2)c1=O)=C(/O)c1ccccc1`, the TGI in the assay with 786-0 renal, in the assay on BT-549 breast, in the assay on CCRF-CEM leukemia, in the assay on COLO 205 colon, in the assay on EKVX NSCLC and with HCC-2998 colon was over 100 µM in each case. For the same molecule, the TGI in the assay with HOP-62 NSCLC, with M14 melanoma, in the assay on MDA-MB-231 breast, in the assay on MOLT-4 leukemia, with RXF 393 renal and with SF-295 CNS was over 100 µM in each case. For the same molecule, the TGI in the assay with SF-539 CNS, in the assay with SNB-19 CNS, with T-47D breast and with UO-31 renal was over 100 µM each time.
